# Experimental data: patent publication US20220313640A1 (Concert Pharmaceuticals, Inc., priority 2019, published 2022)
# Assays:
# [1] = Randomized single dose crossover plasma PK of Compound 100 versus D-serine in healthy volunteers; type: in vivo, human
# Protocol: Thirteen healthy volunteers between the ages of 18 to 55 were enrolled in the study. […] Period 1 dosing occurred within 14 days of screening. […] Similarly, in Period 2, the 2 subjects in the sentinel group received the alternate treatment after a 4-day washout and approximately 2 days prior to the remaining subjects receiving their Period 2 dose. […] Water consumption was restricted from 1 hour prior to dosing until 1 hour after dosing. Subjects fasted for approximately 3 hours after dosing and remained upright or semi-supine during this period. A meal was provided 3-4 hours after the dose. Meal times and contents were standardized until the last blood sample was collected for PK assessments. […] Plasma samples were stored in labeled tubes at approximately -80° C.
# [2] = molecular target: T1, human NMDAR subunits GluN1 and GluN2A (Homo sapiens, UniProt Q05586); experiment: NMDA receptor activation in automated patch clamp system (ScreenPatch), HEK293 cells; type: cell-based; conditions: 0.003 to 10 μM, Compound 100 versus D-serine
# T1 construct: expressed in transfected cells; host or cells: HEK293
# Protocol: Peak current and steady state current were measured. The activity at the NMDA receptor was indistinguishable for the two compounds.
# [3] = Nephrotoxicity comparison of Compound 100 and non-deuterated D-serine at doses from 150 mg/kg to 750 mg/kg; type: in vivo, rats
# [4] = Safety and tolerability in single dose crossover study in healthy volunteers; type: in vivo, human; conditions: single 0.25 g oral dose
# Description: Thirteen healthy volunteers between the ages of 18 to 55 were enrolled in the study.
# Period 1 dosing occurred within 14 days of screening.
# [5] = Single Ascending Dose (SAD) study plasma PK in healthy volunteers; type: in vivo, human; conditions: for half-life / AUC(0-inf) / Cmax / Tmax: human, plasma; for Tmax: median
# Protocol: The 0.5, 2, 3, and 4 g doses were evaluated under fasted conditions (after an overnight fast) while the 1 g dose was evaluated under both fasted and fed conditions (within 30 minutes of consumption of a meal) in a crossover design. […] Blood samples for PK analysis were obtained at several time points after dose administration. Safety assessments included monitoring of adverse events and clinical laboratory testing including monitoring of kidney function.
# [6] = Nephrotoxicity of Compound 100 and non-deuterated D-serine in male Sprague-Dawley rats, 150 mg/kg PO (BUN, creatinine, GGT); type: in vivo
# Description: (§1) The pharmacokinetic profile of Compound 100 was investigated in male Sprague-Dawley rats compared with that of non-deuterated D-serine. […] Plasma was collected and analyzed for Compound 100 and non-deuterated D-Serine. Additional blood was collected and analyzed for the full clinical chemistry profile.
# [7] = Pharmacokinetic profile of Compound 100 in male Sprague-Dawley rats: plasma, hippocampus and cortex concentration after 30 mg/kg PO; type: in vivo; conditions: fasted, 1 hr post dose, mean
# Protocol: The mean plasma, hippocampus, and cortex concentrations at 1 hour were 19200 ng/mL, 674 ng/g, and 754 ng/g, respectively. The mean plasma, hippocampus, and cortex concentrations at 6 hours were 1780 ng/mL, 1385 ng/g, and 936 ng/g, respectively.
# [8] = Pharmacokinetic profile of Compound 100 versus non-deuterated D-serine in male Sprague-Dawley rats, 150 mg/kg PO; type: in vivo; conditions: fasted, plasma, mean
# Description: as §1
# [9] = Safety and tolerability in SAD and MAD studies; type: in vivo, human
# Protocol: The 0.5, 2, 3, and 4 g doses were evaluated under fasted conditions (after an overnight fast) while the 1 g dose was evaluated under both fasted and fed conditions (within 30 minutes of consumption of a meal) in a crossover design. […] Blood samples for PK analysis were obtained at several time points after dose administration. Safety assessments included monitoring of adverse events and clinical laboratory testing including monitoring of kidney function. Neurocognitive effects of CTP-692 using CogScreen® were also explored.
# [10] = Multiple Ascending Dose (MAD) study plasma PK, 7 consecutive days; conditions: for AUC(0-inf) / AUC(0-t) / Cmax / Tmax: human, plasma, po
# Description: The caloric content of the meal was in accordance with the FDA guidance for food-effect studies.
# [11] = human, plasma, single 0.25 g oral solution, fasted, mean, N = 11
# [12] = dose escalation 150 mg/kg to 750 mg/kg
# [13] = po, 0.5 g, 0.5 g single oral dose, fasted, arithmetic mean
# [14] = po, 1 g, 1 g (fed) single oral dose, arithmetic mean
# [15] = po, 1 g, 1 g single oral dose, fasted, arithmetic mean
# [16] = po, 2 g, 2 g single oral dose, fasted, arithmetic mean
# [17] = po, 3 g, 3 g single oral dose, fasted, arithmetic mean
# [18] = po, 4 g, 4 g single oral dose, fasted, arithmetic mean
smiles,measurement,setting,value
"[2H][C@@](N)(CO)C(=O)O [Compound 100, (2R)-2-amino-2-deutero-3-hydroxy-propanoic acid]",Tmax,"[1]; human, plasma, single 0.25 g oral solution, fasted, N = 11",1.5 h
same,AUC(0-inf),[1]; [11],38.7 µg·h/mL
same,Cmax,[1]; [11],4550 ng/mL
same,half-life,[1]; [11],18.3 h
same,plasma exposure compared to D-serine,[1]; single 0.25 g oral dose,increased plasma exposure
same,CL/F,"[1]; single 0.25 g oral solution, fasted, mean, N = 11",6.6 L/h
same,activity at the NMDA receptor (peak current and steady state current),[2],indistinguishable
same,"exposure as measured by AUC and Cmax, compared with non-deuterated D-serine",[3]; [12],greater
same,gross signs of nephrotoxicity,[3]; [12],not Compound 100
same,changes in BUN or creatinine,[3]; doses from 150 mg/kg to 750 mg/kg PO,minimal changes
same,adverse events related to Compound 100,[4],mild headache (1 subject) and fatigue (2 subjects)
same,serious adverse events,[4],no serious adverse events were reported
same,tolerability,[4],generally well tolerated
same,CL/F,"[5]; 0.5 g single oral dose, fasted, arithmetic mean",6.17 L/h
same,CL/F,"[5]; 1 g (fed) single oral dose, arithmetic mean",5.99 L/h
same,CL/F,"[5]; 1 g single oral dose, fasted, arithmetic mean",6.28 L/h
same,CL/F,"[5]; 2 g single oral dose, fasted, arithmetic mean",6.56 L/h
same,CL/F,"[5]; 3 g single oral dose, fasted, arithmetic mean",6.68 L/h
same,CL/F,"[5]; 4 g single oral dose, fasted, arithmetic mean",6.69 L/h
same,half-life,"[5]; oral, SAD and MAD studies, human plasma, read-out: terminal t1/2 (converted)",~19 h
same,AUC(0-inf),[5]; [13],82.2 µg·h/mL
same,Cmax,[5]; [13],11000 ng/mL
same,half-life,"[5]; po, 0.5 g, 0.5 g single oral dose, fasted, arithmetic mean, read-out: t1/2 (converted)",15.9 h
same,Tmax,"[5]; po, 0.5 g, 0.5 g single oral dose, fasted",1 h
same,AUC(0-inf),[5]; [14],173 µg·h/mL
same,Cmax,[5]; [14],15300 ng/mL
same,half-life,"[5]; po, 1 g, 1 g (fed) single oral dose, arithmetic mean, read-out: t1/2 (converted)",17.9 h
same,Tmax,"[5]; po, 1 g, 1 g (fed) single oral dose",2 h
same,AUC(0-inf),[5]; [15],164 µg·h/mL
same,Cmax,[5]; [15],22300 ng/mL
same,half-life,"[5]; po, 1 g, 1 g single oral dose, fasted, arithmetic mean, read-out: t1/2 (converted)",19.2 h
same,Tmax,"[5]; po, 1 g, 1 g single oral dose, fasted",1 h
same,AUC(0-inf),[5]; [16],315 µg·h/mL
same,Cmax,[5]; [16],46300 ng/mL
same,half-life,"[5]; po, 2 g, 2 g single oral dose, fasted, arithmetic mean, read-out: t1/2 (converted)",20.2 h
same,Tmax,"[5]; po, 2 g, 2 g single oral dose, fasted",1 h
same,AUC(0-inf),[5]; [17],489 µg·h/mL
same,Cmax,[5]; [17],69100 ng/mL
same,half-life,"[5]; po, 3 g, 3 g single oral dose, fasted, arithmetic mean, read-out: t1/2 (converted)",20.6 h
same,Tmax,"[5]; po, 3 g, 3 g single oral dose, fasted",1 h
same,AUC(0-inf),[5]; [18],618 µg·h/mL
same,Cmax,[5]; [18],96500 ng/mL
same,half-life,"[5]; po, 4 g, 4 g single oral dose, fasted, arithmetic mean, read-out: t1/2 (converted)",18.4 h
same,Tmax,"[5]; po, 4 g, 4 g single oral dose, fasted",1 h
same,levels of biomarkers of nephrotoxicity,[6],did not increase
same,Cortex concentration,[7],754 ng/g
same,Hippocampus concentration,[7],674 ng/g
same,Plasma concentration,[7],19200 ng/mL
same,AUCinf,[8],383 µg·h/mL
same,Cmax,[8],186000 ng/mL
same,Tmax,[8],0.667 h
same,effects on kidney function (serum and urine kidney function parameters),[9]; SAD and MAD studies,no apparent Compound 100-related effects on kidney function
same,effects on other clinical laboratory parameters,[9]; SAD and MAD studies,no clinically significant Compound 100-related effects
same,most common treatment-related adverse event,[9]; SAD and MAD studies,headache
same,neurocognitive effects (CogScreen),"[9]; SAD and MAD studies, exploratory",no evidence of adverse effects on neurocognitive functioning
same,tolerability,"[9]; SAD and MAD studies, healthy volunteers",well-tolerated
same,Compound 100-related adverse events,"[9]; highest once-daily dose of 4 g, both studies",no Compound 100-related adverse events were reported
same,Accumulation,[10]; following 7 consecutive days of administration,minimal to modest
same,dose-exposure relationship,[10]; following single and multiple doses (at Day 7),linear
same,AUC(0-inf),[10]; 1 g,263 µg·h/mL
same,AUC(0-t),[10]; 1 g,175 µg·h/mL
same,Cmax,[10]; 1 g,25300 ng/mL
same,Tmax,[10]; 1 g,1.5 h
same,AUC(0-inf),[10]; 2 g,522 µg·h/mL
same,AUC(0-t),[10]; 2 g,333 µg·h/mL
same,Cmax,[10]; 2 g,52000 ng/mL
same,Tmax,[10]; 2 g,1 h
same,AUC(0-inf),[10]; 4 g,911 µg·h/mL
same,AUC(0-t),[10]; 4 g,539 µg·h/mL
same,Cmax,[10]; 4 g,70800 ng/mL
same,Tmax,[10]; 4 g,2 h
